Results: patent publication US20230263822A1, “MODULATION OF FACTOR 11 EXPRESSION” (Ionis Pharmaceuticals, Inc., priority 2008, published 2023)
pIC50: −log10 of the molar value.

Experiments:
[1] = parameters: species or system CD1 mice; details: mouse, in vivo
Description: Five mice from each group were sacrificed 3 days, 28 days and 56 days following the final dose. Livers were harvested for analysis.
The concentration of the full-length oligonucleotide as well as the total oligonucleotide concentration (including the degraded form) was measured. The method used is a modification of previously published methods (Leeds et al., 1996; Geary et al., 1999) which consist of a phenol-chloroform (liquid-liquid) extraction followed by a solid phase extraction. An internal standard (ISIS 355868, a 27-mer 2′-O-methoxyethyl modified phosphorothioate oligonucleotide, […], designated herein as SEQ ID NO: 270) was added prior to extraction. […] Half-lives were then calculated using WinNonlin software ([…]).
The results are presented in Tables 68 and 69, expressed as μg/g liver tissue.

human Factor 11 mRNA [2] = assay: Dose-dependent inhibition of human Factor 11 in cyano primary hepatocytes, electroporation (Example 6); type: cell-based; details: ~16 hours
Description: Cells were plated at a density of 35,000 cells per well and transfected via electroporation with 0.74 nM, 2.2 nM, 6.7 nM, 20 nM, 60 nM, and 180 nM concentrations of antisense oligonucleotide, as specified in Table 13. After a treatment period of approximately 16 hours, RNA was isolated from the cells and human Factor 11 mRNA levels were measured by quantitative real-time PCR. Human Factor 11 primer probe set RTS 2966 was used to measure mRNA levels. Factor 11 mRNA levels were adjusted according to total RNA content, as measured by RIBOGREEN. Results are presented as percent inhibition of human Factor 11, relative to untreated control cells.

[3] = parameters: species or system Sprague-Dawley rats; details: rat, in vivo
Description: Three days after the last dose, the rats were sacrificed and livers and kidneys were collected for analysis.
The concentration of the full-length oligonucleotide as well as the total oligonucleotide concentration (including the degraded form) was measured. The method used is a modification of previously published methods (Leeds et al., 1996; Geary et al., 1999) which consist of a phenol-chloroform (liquid-liquid) extraction followed by a solid phase extraction. An internal standard (ISIS 355868, a 27-mer 2′-O-methoxyethyl modified phosphorothioate oligonucleotide, […], designated herein as SEQ ID NO: 270) was added prior to extraction. […] The results are presented in Tables 77 and 78, expressed as μg/g liver or kidney tissue. Half-lives were then calculated using WinNonlin software ([…]).

human Factor 11 mRNA [4] = assay: Dose-dependent inhibition of human Factor 11 in HepB3 cells, electroporation (Example 7); type: cell-based; details: for percent inhibition of human Factor 11 mRNA relative to untreated control cells: ~16 hours
Description: The gapmers were also transfected via electroporation and their dose dependent inhibition of human Factor 11 mRNA was measured. Cells were plated at a density of 20,000 cells per well and transfected via electroporation with 41.15 nM, 123.457 nM, 370.37 nM, 1111.11 nM, 3333.33 nM, and 10,000 nM concentrations of antisense oligonucleotide, as specified in Table 15. After a treatment period of approximately 16 hours, RNA was isolated from the cells and human Factor 11 mRNA levels were measured by quantitative real-time PCR. Human Factor 11 primer probe set RTS 2966 was used to measure mRNA levels. Factor 11 mRNA levels were adjusted according to total RNA content, as measured by RIBOGREEN. Results are presented as percent inhibition of human Factor 11, relative to untreated control cells.

Row | Substance | Half-Life in the liver [1] [days] | percent inhibition of human Factor 11 mRNA relative to untreated control cells (human Factor 11 mRNA [2]; 0.74 nM) [%] | percent inhibition of human Factor 11 mRNA relative to untreated control cells (human Factor 11 mRNA [2]; 2.2 nM) [%] | percent inhibition of human Factor 11 mRNA relative to untreated control cells (human Factor 11 mRNA [2]; 6.7 nM) [%] | percent inhibition of human Factor 11 mRNA relative to untreated control cells (human Factor 11 mRNA [2]; 20 nM) [%] | percent inhibition of human Factor 11 mRNA relative to untreated control cells (human Factor 11 mRNA [2]; 60 nM) [%] | percent inhibition of human Factor 11 mRNA relative to untreated control cells (human Factor 11 mRNA [2]; 180 nM) [%] | Half-life in the liver and kidney [3] [days] | pIC50 (human Factor 11 mRNA [4]) | percent inhibition of human Factor 11 mRNA relative to untreated control cells (human Factor 11 mRNA [4]; 41.15 nM) [%] | percent inhibition of human Factor 11 mRNA relative to untreated control cells (human Factor 11 mRNA [4]; 123.457 nM) [%] | percent inhibition of human Factor 11 mRNA relative to untreated control cells (human Factor 11 mRNA [4]; 370.37 nM) [%] | percent inhibition of human Factor 11 mRNA relative to untreated control cells (human Factor 11 mRNA [4]; 1111.11 nM) [%] | percent inhibition of human Factor 11 mRNA relative to untreated control cells (human Factor 11 mRNA [4]; 3333.33 nM) [%] | percent inhibition of human Factor 11 mRNA relative to untreated control cells (human Factor 11 mRNA [4]; 10000 nM) [%]
1 | 417002 (antisense GGTGCACAGTTTCTGGCAGG; 2-13-5 gapmer chemistry, further chemistry not given here) [compound 417002] | 11 | 32 | 16 | 28 | 38 | 55 | 71 | 11 | 5.92 | 19 | 0 | 31 | 47 | 86 | 93
2 | 416999 (antisense GCACAGTTTCTGGCAGGCCT; 2-13-5 gapmer chemistry, further chemistry not given here) [compound 416999] | 9 | 3 | 40 | 36 | 62 | 67 | 82 | 9 | 6.80 | 31 | 45 | 62 | 78 | 94 | 97
3 | 416925 (antisense GGTGCACAGTTTCTGGCAGG; 3-14-3 gapmer chemistry, further chemistry not given here) [compound 416925] | 12 | 0 | 9 | 1 | 48 | 55 | 76 | 12 | 6.70 | 27 | 39 | 50 | 73 | 88 | 96
4 | 416826 (antisense ATGCCCTTCATGTCTAGGTC; 5-10-5 gapmer, further chemistry not given here) [compound 416826] | 13 | 13 | 24 | 34 | 67 | 69 | 71 | 13 | 6.11 | 0 | 0 | 34 | 61 | 87 | 92
5 | 416850 (antisense TGCACAGTTTCTGGCAGGCC; 5-10-5 gapmer, further chemistry not given here) [compound 416850] | 18 | 2 | 20 | 24 | 65 | 69 | 67 | 18 | 6.52 | 26 | 38 | 51 | 73 | 90 | 95
6 | 416858 (antisense ACGGCATTGGTGCACAGTTT; 5-10-5 gapmer, further chemistry not given here) [compound 416858] | 26 | 2 | 13 | 22 | 44 | 63 | 68 | 26 | 6.52 | 23 | 45 | 52 | 64 | 87 | 92
